Laboratory results as given in publication PMC7913925, “Design and Evaluation of a Polypeptide That Mimics the Integrin Binding Site for EDA Fibronectin to Block Profibrotic Cell Activity” (International Journal of Molecular Sciences, 2021).
Bridges are numbered along the chain shown (N, C = ends). Where no end group is shown, it is not given here.

Experiments:
EDA-FN–ITGA4 interaction = assay: Co-IP of EDA-FN with ITGA4; format: cell-based; conditions: 48 h, Co-IP with anti-ITGA4
Protocol: Total protein was extracted from cells in RIPA lysis buffer containing 1% protease inhibitor cocktail, 1% phenylmethylsulfonyl fluoride, and 1% sodium orthovanadate (Santa Cruz Biotechnology, Santa Cruz, CA, USA). Protein was quantified by Micro BCA Protein Assay Kit (Thermo Fisher Scientific) before 7.5% SDS-PAGE and transfer to nitrocellulose. Membranes were blocked with 5% bovine serum albumin (BSA; Sigma-Aldrich)/0.5% Tween-20 (Sigma-Aldrich)/PBS for 1 h, RT, followed by incubation with primary antibodies diluted in 1% BSA/0.1% Tween-20/PBS, overnight at 4 °C. Primary antibodies were: anti-phosphoY204/Y187 ERK1/2 (1:1000); anti-ERK1/2 (1:1000); anti-phosphoY861 FAK (1:1000); anti-FAK (1:2000). Immunoblotting for anti-GAPDH (1:2500) was used as a protein loading control. Following wash steps, membranes were incubated in goat anti-rabbit IgG H&L secondary antibody (horseradish peroxidase, HRP conjugate, […]) (Abcam; 1:5000 dilution, 1% BSA/0.1% Tween-20/PBS). Detection was performed using Immobilon reagent (Merck Millipore, Burlington, MA, USA) and imaged using a Tanon 5500 Chemiluminescent Imaging System (Tanon, Shanghai, China).
A volume of 25 µg total protein from cell lysate in nondenaturing lysis buffer containing protease inhibitors was immunoprecipitated (IP) using anti-ITGA4 antibodies linked to protein A/G sepharose beads (Abcam). […]

pro-MMP2 = assay: Gelatinase zymography pro-MMP2; format: cell-based, mouse; conditions: 48 h, TGF-β1 10 ng/mL, AF38Pep 10 µg/mL, conditioned medium
Protocol: Conditioned media were collected from cells incubated with serum-free medium (SFM) alone, SFM containing 10 ng/mL TGF-β1, SFM containing 10 µg/mL AF38Pep, or SFM containing both 10 ng/mL TGF-β1 and 10 µg/mL AF38Pep. Conditioned medium was concentrated 10× by filtrating spin columns (Amicon Ultra-4 10 kDa MWCO, Merck Millipore) and protein was quantified by Micro BCA Protein Assay Kit (Thermo Fisher Scientific). A 1.5 mm thick 10% nonreducing acrylamide gel containing gelatin was prepared and 10 µg of sample in 5 × nonreducing buffer was loaded into the gel lanes. The gel was run at 100 V until the protein entered the stacking gel layer, then the voltage was increased to 150 V until the marker achieved resolved band separation. The gels were then washed twice for 30 min using wash buffer to remove SDS and renature the enzymes. Gels were further rinsed for 5–10 min in incubation buffer at 37 °C with agitation to activate the gelatinase reaction. Fresh incubation buffer was added, and the gels were incubated overnight at 37 °C. Gels were stained with staining solution containing Coomassie blue for between 30 min to 1 h, before rinsing with ddH2O and subsequent incubation with de-stain solution until bands could be observed. The gels were transferred to 2% acetic acid and rehydrated overnight for imaging by scanner.

EDA-FN = assay: Western blot total protein EDA-FN; format: cell-based; conditions: 48 h, TGF-β1+AF38Pep
Fn1 mRNA = assay: qRT-PCR Fn1 mRNA; format: cell-based, mouse
Protocol: Reverse transcription (RT) and real-time quantitative PCR (qRT-PCR) were used to assess ACTA2/Acta2, Col1a1, Col3a1, Fn1, Eda-Fn1, Mmp9, Tgfb1, Ltbp1, Hic5, and Mrtfa mRNA expressions. Custom PCR primers were designed in-house (Table 2) and then synthesized by BGI (Beijing, China). Cells were grown in 6-well culture plates and washed with phosphate buffered saline (PBS) before lysis with TRIzon Reagent (CWBio, Beijing, China) and total RNA purification according to the manufacturer’s protocol. Reverse transcription was carried using the TransScript First-Strand cDNA Synthesis SuperMix kit according to the manufacturer’s protocol (TransGen, Beijing, China), using the random primer method for the initiation of cDNA synthesis. Nuclease-free H2O replaced the RNA sample to serve as a negative control for the reverse transcription reaction. For qRT-PCR, 10 µL 2× TransStart Top Green qPCR SuperMix was added to each well of a 96-well PCR plate containing 0.4 µL forward primer, 0.4 µL reverse primer, […], and nuclease-free water to a total volume of 20 µL. The qRT-PCR reaction was completed using a CFX96 Real-Time PCR Detection System (Bio-Rad Laboratories, Hercules, CA, USA). Amplification used the following parameters: 94 °C for 30 s, followed by 40 cycles of 94 °C for 5 s, 55 °C for 15 s, 72 °C for 10 s, and then a dissociation stage (melt-curve). […]

[1] = tested on: α-SMA in NIH/3T3 dermal fibroblasts; assay: Immunocytochemistry α-SMA stress fibers; format: cell-based, mouse; conditions: 48 h, TGF-β1 10 ng/mL, AF38Pep 10 µg/mL
Protocol: Cells were grown to 40% confluence in 8-well glass chamber slides (Nunc, Thermo Fisher Scientific), prior to growth arrest and treatment. Cells were washed with PBS before fixation in 4% paraformaldehyde for 10 min at room temperature. Next, cells were permeabilized with 0.1% (v/v) Triton X-100 in PBS for 10 min at room temperature. For visualization of ECM, cells were fixed with 100% ice-cold methanol for 8 min at −20 °C. Slides were washed with PBS and blocked with 1% goat serum (TBD Science, Tianjin, China) for 30 min before washing with 0.1% (w/v) BSA in PBS. Subsequently, slides were incubated with monoclonal mouse anti-α-SMA antibody (Sigma-Aldrich, 1:50) diluted in 0.1% BSA-PBS, overnight at 4 °C. After further wash steps, slides were incubated with goat anti-mouse IgG CF-488 secondary antibody (Abcam, 1:1000) in 0.1% BSA-PBS for 1 h at room temperature and under darkness. For F-actin visualization, after fixation and permeabilization; cells were incubated with phalloidin conjugated to FITC (Sigma-Aldrich) in 0.1% BSA-PBS, overnight at 4 °C. Cells were then mounted in DAPI Fluoromount-G (Thermo Fisher Scientific) and imaged using a Zeiss Axio Imager Z1 UV fluorescence microscope (Zeiss, Jena, Germany) and a Leica TCS SP5 laser scanning confocal microscope (Leica Biosystems, Baden-Württemberg, Germany).

Question: For “VMPYISTTPAKPCTSENCGNSWYGGFKSKNENKIYFIN (disulfide 13-18 (inferred)) [AF38Pep]”, which “EDA-FN–ITGA4 interaction” value (EDA-FN–ITGA4 interaction) is on record?
Answer: specifically inhibited EDA-FN–ITGA4 interactions

Question: What about the pro-MMP2 gelatinase activity (pro-MMP2) of the same sequence?
Answer: suppressed activity levels

Question: What about the “TGF-β1-driven EDA-FN total protein increase” value (EDA-FN) of the same sequence?
Answer: marginally, but significantly, attenuated

Question: And the “fibronectin mRNA expression” value (Fn1 mRNA; 72 h, TGF-β1 + AF38Pep)?
Answer: all inhibited

Question: And the “fibronectin mRNA expression” value (Fn1 mRNA; by 48 h, vs TGF-β1-only)?
Answer: significant attenuation

Question: What about the “α-SMA protein expression (stress fibers)” value [1] of the same sequence?
Answer: inhibited
